In patent US8513252B2, “Pyrazole derivatives and their use as positive allosteric modulators of metabotropic glutamate receptors” (Addex Pharma S.A., priority 2009, dated 2013):

Columns and labels:
[1] = molecular target: T1, recombinant human mGluR4a receptors (Homo sapiens, UniProt Q14833); assay: mGluR4 assay on HEK-expressing human mGluR4: fluorescent cell based Ca2+ mobilization assay (FLIPR); conditions: HEK-293 cells expressing hmGluR4; potentiation of EC25 glutamate; mean of at least three independent experiments in duplicate; read-out: Ca^2+ Flux (mean EC50)
T1 construct: expressed in transfected cells
Text: mGluR4 Assay on HEK-Expressing Human mGluR4
The compounds of the present invention are positive allosteric modulators of mGluR4 receptor. Their activity was examined on recombinant human mGluR4a receptors by detecting changes in intracellular Ca^2+ concentration, using the fluorescent Ca^2+-sensitive dye Fluo4-(AM) and a Fluorometric Imaging Plate Reader (FLIPR, Molecular Devices, Sunnyvale, Calif.).
The cDNA encoding the human metabotropic glutamate receptor (hmGluR4), (accession number NM_000841.1, NCBI Nucleotide database browser), was subcloned into an expression vector containing also the hygromycin resistance gene. In parallel, the cDNA encoding a G protein allowing redirection of the activation signal to intracellular calcium flux was subcloned into a different expression vector containing also the puromycin resistance gene. Transfection of both these vectors into HEK293 cells with PolyFect reagent (Qiagen) according to supplier's protocol, and hygromycin and puromycin treatment allowed selection of antibiotic resistant cells which had integrated stably one or more copies of the plasmids. Positive cellular clones expressing hmGluR4 were identified in a functional assay measuring changes in calcium fluxes in response to glutamate or selective known mGluR4 orthosteric agonists and antagonists.
HEK-293 cells expressing hmGluR4 were maintained in media containing DMEM, dialyzed Fetal Calf Serum (10%), Glutamax™ (2 mM), Penicillin (100 units/mL), Streptomycin (100 μg/mL), Geneticin (100 μg/mL) and Hygromycin-B (40 μg/mL) and puromycin (1 μg/mL) at 37° C./5% CO2.
Human mGluR4 HEK-293 cells were plated out 24 hours prior to FLIPR^384 assay in black-walled, clear-bottomed, poly-L-ornithine-coated 384-well plates at a density of 25,000 cells/well in a glutamine/glutamate free DMEM medium containing foetal bovine serum (10%), penicillin (100 units/mL) and streptomycin (100 μg/mL) at 37° C./5% CO2.
On the day of the assay, the medium was aspirated and the cells were loaded with a 3 μM solution of Fluo-4-AM (LuBioScience, Lucerne, Switzerland) in 0.03% pluronic acid. After 1 hour at 37° C./5% CO2, the non incorporated dye was removed by washing cell plate with the assay buffer and the cells were left in the dark at room temperature for […] before testing. All assays were performed in a pH 7.4 buffered-solution containing 20 mM HEPES, 143 mM NaCl, 6 mM KCl, 1 mM MgSO4, 1 mM CaCl2, 0.125 mM sulfapyrazone and 0.1% glucose.
After 10 s of basal fluorescence recording, various concentrations of the compounds of the invention were added to the cells. Changes in fluorescence levels were first monitored for 180 s in order to detect any agonist activity of the compounds. Then the cells were stimulated by an EC25 glutamate concentration for an additional 110 s in order to measure enhancing activities of the compounds of the invention. EC25 glutamate concentration is the concentration giving 25% of the maximal glutamate response.
The concentration-response curves of representative compounds of the present invention were generated using the Prism GraphPad software (Graph Pad Inc, San Diego, USA). The curves were fitted to a four-parameter logistic equation: (Y=Bottom+(Top-Bottom)/(1+10^((Log EC50−X)*Hill Slope) allowing the determination of EC50 values.
The Table 4 below represents the mean EC50 obtained from at least three independent experiments of selected molecules performed in duplicate.

T1 sequence (Q14833 33-912): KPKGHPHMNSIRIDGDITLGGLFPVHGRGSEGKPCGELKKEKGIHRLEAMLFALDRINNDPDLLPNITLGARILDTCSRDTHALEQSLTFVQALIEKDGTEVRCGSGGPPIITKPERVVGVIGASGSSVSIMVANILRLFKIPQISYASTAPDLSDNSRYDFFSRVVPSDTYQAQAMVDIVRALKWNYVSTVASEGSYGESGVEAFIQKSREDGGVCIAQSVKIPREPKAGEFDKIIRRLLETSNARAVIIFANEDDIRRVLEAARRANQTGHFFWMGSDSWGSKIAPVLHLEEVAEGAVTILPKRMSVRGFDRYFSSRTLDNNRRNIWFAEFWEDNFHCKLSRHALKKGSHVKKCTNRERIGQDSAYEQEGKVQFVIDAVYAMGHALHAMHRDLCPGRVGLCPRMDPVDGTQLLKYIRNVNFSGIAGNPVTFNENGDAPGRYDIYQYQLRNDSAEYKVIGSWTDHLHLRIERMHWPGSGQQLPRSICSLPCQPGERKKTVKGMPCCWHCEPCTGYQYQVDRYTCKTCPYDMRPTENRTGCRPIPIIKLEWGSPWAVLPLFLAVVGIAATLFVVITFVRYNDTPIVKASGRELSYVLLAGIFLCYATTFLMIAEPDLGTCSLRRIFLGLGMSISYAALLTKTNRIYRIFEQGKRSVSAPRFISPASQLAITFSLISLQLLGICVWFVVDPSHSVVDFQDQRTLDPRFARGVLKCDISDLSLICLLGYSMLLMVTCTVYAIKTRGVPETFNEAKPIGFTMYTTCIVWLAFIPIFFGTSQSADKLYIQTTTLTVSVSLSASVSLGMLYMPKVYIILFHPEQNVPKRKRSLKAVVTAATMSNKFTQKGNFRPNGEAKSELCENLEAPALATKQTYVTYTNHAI

SMILES	EC50 [1]	melting point
Cc1n[nH]cc1-c1nsc(Oc2ccccc2)n1 [Compound 1-1, 3-(3-Methyl-1H-pyrazol-4-yl)-5-phenoxy-1,2,4-thiadiazole]	1000 to 10000 nM	165 to 166 °C
FC(F)(F)c1n[nH]cc1-c1nsc(Oc2ccccn2)n1 [Compound 1-2, 5-(Pyridin-2-yloxy)-3-(3-(trifluoromethyl)-1H-pyrazol-4-yl)-1,2,4-thiadiazole]	< 100 nM	245 to 247 °C
Cc1[nH]ncc1-c1csc(Oc2ncccn2)n1 [Compound 1-4, 4-(5-Methyl-1H-pyrazol-4-yl)-2-(pyrimidin-2-yloxy)thiazole]		177 °C
Fc1cccc(F)c1Oc1nc(-c2cn[nH]c2)cs1 [Compound 1-5, 2-(2,6-Difluorophenoxy)-4-(1H-pyrazol-4-yl)thiazole]	100 to 1000 nM	131 to 135 °C
c1ccc(Oc2nc(-c3cn[nH]c3)cs2)nc1 [Compound 1-6, 4-(1H-Pyrazol-4-yl)-2-(pyridin-2-yloxy)thiazole]		151 to 152 °C
Cc1n[nH]cc1-c1csc(Oc2cccc(Cl)n2)n1 [Compound 1-7, 2-(6-Chloropyridin-2-yloxy)-4-(3-methyl-1H-pyrazol-4-yl)thiazole]	< 100 nM	158 to 161 °C
Cc1n[nH]cc1-c1csc(Oc2ncccc2F)n1 [Compound 1-8, 2-(3-Fluoropyridin-2-yloxy)-4-(3-methyl-1H-pyrazol-4-yl)thiazole]		160 °C
CC(=O)c1n[nH]cc1-c1csc(Oc2cccc(C)n2)n1 [Compound 1-9, 1-(4-(2-(6-Methylpyridin-2-yloxy)thiazol-4-yl)-1H-pyrazol-3-yl)ethanone]		194 to 195 °C
Cc1cccc(Oc2nc(-c3cn[nH]c3)cs2)n1 [Compound 1-10, 2-(6-Methylpyridin-2-yloxy)-4-(1H-pyrazol-4-yl)thiazole]	< 100 nM	176 to 178 °C
Cc1cccc(Oc2nc(-c3c[nH]nc3C)cs2)n1 [Compound 1-11, 4-(3-Methyl-1H-pyrazol-4-yl)-2-(6-methylpyridin-2-yloxy)thiazole]		138 to 139 °C
Fc1ccc(Oc2nc(-c3cn[nH]c3)cs2)nc1 [Compound 1-18, 2-(5-Fluoropyridin-2-yloxy)-4-(1H-pyrazol-4-yl)thiazole]	100 to 1000 nM	
N#Cc1sc(Oc2cccc(Cl)n2)nc1-c1cn[nH]c1 [Compound 1-21, 2-(6-Chloropyridin-2-yloxy)-4-(1H-pyrazol-4-yl)thiazole-5-carbonitrile]	< 100 nM	
